{"source": "patent US20100311751A1", "about": "“SOLID DISPERSIONS CONTAINING AN APOPTOSIS-PROMOTING AGENT” (ABBOTT LABORATORIES, priority 2009, published 2010)", "experiment": "solubility in water", "format": "physicochemical", "conditions": "pH 2", "excerpt": "Examples of such active ingredients are, for example, Biopharmaceutics Classification System (BCS) Class IV drug substances that are characterized by low solubility and low permeability (see “Waiver of in vivo bioavailability and bioequivalence studies for immediate-release solid oral dosage forms based on a biopharmaceutics classification system”, U.S. Department of Health and Human Services, Food and Drug Administration, Center for Drug Evaluation and Research (CDER), August 2000). It will be recognized that aqueous solubility of many compounds is pH-dependent; in the case of such compounds the solubility of interest herein is at a physiologically relevant pH, for example a pH of about 1 to about 8.", "data": [{"smiles": "CC1(C)CCC(c2ccc(Cl)cc2)=C(CN2CCN(c3ccc(C(=O)NS(=O)(=O)c4ccc(N[C@H](CCN5CCOCC5)CSc5ccccc5)c(S(=O)(=O)C(F)(F)F)c4)cc3)CC2)C1", "note": "[ABT-263]", "values": [{"measurement": "solubility in water", "result": "less than 4 μg/ml"}]}]}
